Where two headings read alike, the source gives them in different places.
Experiments:
Assay type in all cases: in vivo
[1] = system: velvetleaf (Abutilon theophrasti); assay: Test A pre-/postemergence: velvetleaf; settings: Abutilon theophrasti, 240 h; for pest or weed control at 125 g/ha: 125 g ai/ha; for pest or weed control at 500 g/ha: 500 g ai/ha
In short: (§1)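 Pre: directed soil spray after planting in loam + sand. Post: same formulation (non-phytotoxic solvent + surfactant) on 1–2-leaf plants, 2–10 cm. Greenhouse ~10 d; visual injury 0–100 vs untreated.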

corn (Zea mays) = assay: Test C pre-/postemergence: corn
In short: (§2)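 Preemergence on seeds in loam/sand, postemergence on 2–18 cm (1–4-leaf) plants in peat-based medium; compounds in non-phytotoxic solvent with surfactant. After 13–15 days in greenhouse, visual rating versus controls, 0 (no effect) to 100 (complete control).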

[2] = system: blackgrass (Alopecurus myosuroides); assay: Test C pre-/postemergence: blackgrass
In short: as §2

[3] = system: chickweed (common chickweed, Stellaria media); assay: Test C postemergence: chickweed
In short: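 Crop and weed plants were grown in peat-vermiculite medium and treated postemergence at the 1- to 4-leaf stage (2-18 cm tall). After 13-15 days in a greenhouse, each species was rated visually against untreated controls on a 0-100 scale (0 no effect, 100 complete control).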

wild oat (Avena fatua) = assay: Test C pre-/postemergence: wild oat
In short: as §2

[4] = system: pigweed (Amaranthus retroflexus); assay: Test A pre-/postemergence: pigweed; settings: Amaranthus retroflexus, 240 h; for pest or weed control at 125 g/ha: 125 g ai/ha; for pest or weed control at 500 g/ha: 500 g ai/ha
In short: as §1

[5] = system: winter wheat (Triticum aestivum); assay: Test C pre-/postemergence: winter wheat
In short: as §2

[6] = system: foxtail, giant (giant foxtail, Setaria faberii); assay: Test A pre-/postemergence: foxtail, giant; settings: Setaria faberi, 240 h; for pest or weed control at 125 g/ha: 125 g ai/ha; for pest or weed control at 500 g/ha: 500 g ai/ha
In short: as §1

[7] = system: nutsedge, yellow (yellow nutsedge, Cyperus esculentus); assay: Test C pre-/postemergence: nutsedge, yellow
In short: as §2

[8] = system: lambsquarters (Chenopodium album); assay: Test C pre-/postemergence: lambsquarters
In short: as §2

[9] = system: barnyardgrass (Echinochloa crus-galli); assay: Test A pre-/postemergence: barnyardgrass; settings: Echinochloa crus-galli, 240 h; for pest or weed control at 125 g/ha: 125 g ai/ha; for pest or weed control at 500 g/ha: 500 g ai/ha
In short: as §1

[10] = system: morningglory (Ipomoea coccinea); assay: Test C pre-/postemergence: morningglory
In short: as §2

[11] = Postemergence, 31 g ai/ha, scale 0 to 100 (0 no effect, 100 complete control)
[12] = Postemergence, 62 g ai/ha, scale 0 to 100 (0 no effect, 100 complete control)
[13] = Postemergence, 125 g ai/ha, scale 0 to 100, 0 no effect, 100 complete control
[14] = Postemergence, 250 g ai/ha, scale 0 to 100
[15] = Preemergence, 31 g ai/ha, scale of 0 to 100, 0 is no effect, 100 is complete control
[16] = Preemergence, 62 g ai/ha, scale 0 to 100, 0 no effect, 100 complete control
[17] = Preemergence, 125 g ai/ha, scale 0 to 100, 0 no effect, 100 complete control
[18] = Preemergence, 250 g ai/ha, scale 0 to 100, 0 no effect, 100 complete control
[19] = Preemergence, 62 g ai/ha, scale of 0 to 100, 0 is no effect, 100 is complete control

## Cc1nn(-c2ccc(F)cc2)nc1Oc1ccnc(C(F)(F)F)c1 [Compound 129, 4-[[2-(4-fluorophenyl)-5-methyl-2H-1,2,3-triazol-4-yl]oxy]-2-(trifluoromethyl)pyridine]
[1]; post-emergence, Postemergence, 0 to 100 scale, 0 is no effect, 100 is complete control, read-out: Velvetleaf plant response rating
  pest or weed control at 125 g/ha: 70%
[1]; post-emergence, Postemergence, visual rating on 0 to 100 scale (0 no effect, 100 complete control), approximately ten days, read-out: Velvetleaf plant response rating
  pest or weed control at 500 g/ha: 100%
[1]; pre-emergence, Preemergence, 0 to 100 scale where 0 is no effect and 100 is complete control, read-out: Plant response rating, Velvetleaf
  pest or weed control at 125 g/ha: 60%
[1]; pre-emergence, Preemergence, 0 to 100 scale (0 no effect, 100 complete control), read-out: Plant response rating, Velvetleaf
  pest or weed control at 500 g/ha: 70%
Corn (Zea mays); [11]
  Plant response rating, Corn: 10
Corn (Zea mays); [12]
  Plant response rating, Corn: 15
Corn (Zea mays); [13]
  Plant response rating, Corn: 40
Corn (Zea mays); [14]
  Plant response rating, Corn: 65
Corn (Zea mays); [15]
  Plant response rating, Corn: 0
Corn (Zea mays); [16]
  Plant response rating, Corn: 10
Corn (Zea mays); [17]
  Plant response rating, Corn: 45
Corn (Zea mays); [18]
  Plant response rating, Corn: 65
[2]; [11]
  Plant response rating, Blackgrass: 40
[2]; [12]
  Plant response rating, Blackgrass: 60
[2]; [13]
  Plant response rating, Blackgrass: 70
[2]; [14]
  Plant response rating, Blackgrass: 80
[2]; [15]
  Plant response rating, Blackgrass: 90
[2]; [16]
  Plant response rating, Blackgrass: 90
[2]; [17]
  Plant response rating, Blackgrass: 90
[2]; [18]
  Plant response rating, Blackgrass: 90
[3]; 31 g ai/ha, scale 0 to 100 (0 no effect, 100 complete control)
  Plant response rating, Chickweed: 15
[3]; 62 g ai/ha, scale 0 to 100 (0 no effect, 100 complete control)
  Plant response rating, Chickweed: 45
[3]; 125 g ai/ha, scale 0 to 100, 0 no effect, 100 complete control
  Plant response rating, Chickweed: 80
[3]; 250 g ai/ha, scale 0 to 100
  Plant response rating, Chickweed: 98
Wild oat (Avena fatua); [11]
  Plant response rating, Oat, Wild: 20
Wild oat (Avena fatua); [12]
  Plant response rating, Oat, Wild: 35
Wild oat (Avena fatua); [13]
  Plant response rating, Oat, Wild: 50
Wild oat (Avena fatua); [14]
  Plant response rating, Oat, Wild: 80
Wild oat (Avena fatua); [15]
  Plant response rating, Oat, Wild: 40
Wild oat (Avena fatua); [19]
  Plant response rating, Oat, Wild: 85
Wild oat (Avena fatua); [17]
  Plant response rating, Oat, Wild: 95
Wild oat (Avena fatua); [18]
  Plant response rating, Oat, Wild: 95
[4]; post-emergence, Postemergence, 0 to 100 scale, 0 is no effect, 100 is complete control, read-out: Pigweed plant response rating
  pest or weed control at 125 g/ha: 100%
[4]; post-emergence, Postemergence, visual rating on 0 to 100 scale (0 no effect, 100 complete control), approximately ten days, read-out: Pigweed plant response rating
  pest or weed control at 500 g/ha: 100%
[4]; pre-emergence, Preemergence, 0 to 100 scale where 0 is no effect and 100 is complete control, read-out: Plant response rating, Pigweed
  pest or weed control at 125 g/ha: 100%
[4]; pre-emergence, Preemergence, 0 to 100 scale (0 no effect, 100 complete control), read-out: Plant response rating, Pigweed
  pest or weed control at 500 g/ha: 100%
[5]; [11]
  Plant response rating, Wheat: 20
[5]; [12]
  Plant response rating, Wheat: 25
[5]; [13]
  Plant response rating, Wheat: 30
[5]; [14]
  Plant response rating, Wheat: 40
[5]; [15]
  Plant response rating, Wheat: 0
[5]; [19]
  Plant response rating, Wheat: 20
[5]; [17]
  Plant response rating, Wheat: 30
[5]; [18]
  Plant response rating, Wheat: 60
[6]; post-emergence, Postemergence, 0 to 100 scale, 0 is no effect, 100 is complete control, read-out: Foxtail, Giant plant response rating
  pest or weed control at 125 g/ha: 90%
[6]; post-emergence, Postemergence, visual rating on 0 to 100 scale (0 no effect, 100 complete control), approximately ten days, read-out: Foxtail, Giant plant response rating
  pest or weed control at 500 g/ha: 90%
[6]; pre-emergence, Preemergence, 0 to 100 scale where 0 is no effect and 100 is complete control, read-out: Plant response rating, Foxtail, Giant
  pest or weed control at 125 g/ha: 100%
[6]; pre-emergence, Preemergence, 0 to 100 scale (0 no effect, 100 complete control), read-out: Plant response rating, Foxtail, Giant
  pest or weed control at 500 g/ha: 100%
[7]; [11]
  Plant response rating, Nutsedge, Yellow: 0
[7]; [12]
  Plant response rating, Nutsedge, Yellow: 0
[7]; [13]
  Plant response rating, Nutsedge, Yellow: 0
[7]; [14]
  Plant response rating, Nutsedge, Yellow: 0
[7]; [15]
  Plant response rating, Nutsedge, Yellow: 0
[7]; [19]
  Plant response rating, Nutsedge, Yellow: 0
[7]; [17]
  Plant response rating, Nutsedge, Yellow: 0
[7]; [18]
  Plant response rating, Nutsedge, Yellow: 5
[8]; [11]
  Plant response rating, Lambsquarters: 98
[8]; [12]
  Plant response rating, Lambsquarters: 98
[8]; [13]
  Plant response rating, Lambsquarters: 98
[8]; [14]
  Plant response rating, Lambsquarters: 100
[8]; [15]
  Plant response rating, Lambsquarters: 95
[8]; [19]
  Plant response rating, Lambsquarters: 95
[8]; [17]
  Plant response rating, Lambsquarters: 98
[8]; [18]
  Plant response rating, Lambsquarters: 100
[9]; post-emergence, Postemergence, 0 to 100 scale, 0 is no effect, 100 is complete control, read-out: Barnyardgrass plant response rating
  pest or weed control at 125 g/ha: 90%
[9]; post-emergence, Postemergence, visual rating on 0 to 100 scale (0 no effect, 100 complete control), approximately ten days, read-out: Barnyardgrass plant response rating
  pest or weed control at 500 g/ha: 90%
[9]; pre-emergence, Preemergence, 0 to 100 scale where 0 is no effect and 100 is complete control, read-out: Plant response rating, Barnyardgrass
  pest or weed control at 125 g/ha: 100%
[9]; pre-emergence, Preemergence, 0 to 100 scale (0 no effect, 100 complete control), read-out: Plant response rating, Barnyardgrass
  pest or weed control at 500 g/ha: 100%
[10]; [11]
  Plant response rating, Morningglory: 50
[10]; [12]
  Plant response rating, Morningglory: 55
[10]; [13]
  Plant response rating, Morningglory: 65
[10]; [14]
  Plant response rating, Morningglory: 75
[10]; [15]
  Plant response rating, Morningglory: 0
[10]; [19]
  Plant response rating, Morningglory: 20
[10]; [17]
  Plant response rating, Morningglory: 60
[10]; [18]
  Plant response rating, Morningglory: 65
